For assay [1], the target named is T1, human liver Glucokinase (GK) (Homo sapiens, UniProt P35557).
T1 construct: (His)6; made in house; host or cells: Escherichia coli
T1 sequence (P35557 1-466 isoform P35557-2): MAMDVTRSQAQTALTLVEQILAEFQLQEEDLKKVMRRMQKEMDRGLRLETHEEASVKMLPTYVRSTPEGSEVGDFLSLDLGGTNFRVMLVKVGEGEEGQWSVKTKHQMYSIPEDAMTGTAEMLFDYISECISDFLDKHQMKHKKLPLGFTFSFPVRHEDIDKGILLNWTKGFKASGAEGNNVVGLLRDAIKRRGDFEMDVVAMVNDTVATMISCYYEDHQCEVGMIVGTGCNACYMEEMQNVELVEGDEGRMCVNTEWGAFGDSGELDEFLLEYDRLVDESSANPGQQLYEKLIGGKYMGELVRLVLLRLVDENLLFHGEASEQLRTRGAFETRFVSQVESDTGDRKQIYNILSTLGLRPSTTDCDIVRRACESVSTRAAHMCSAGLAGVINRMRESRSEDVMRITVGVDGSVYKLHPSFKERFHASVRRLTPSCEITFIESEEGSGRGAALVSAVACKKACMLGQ
Description: Glucokinase enzyme assay, liver GK. It is filed as biochemical. The note with it: for activation at 50 µM: percentage increase in GK activity above vehicle control, compound 50 μM, 12 mM glucose; for EC50: concentration that produces 50% activation above the vehicle control; for EC100%: concentration that produces 100% activation above the vehicle control. From the text:
(§1) An enzymatic Glucokinase (GK) assay using purified recombinant human liver/pancreas enzyme was used to evaluate the effects of potential small molecule modulators.
(§2) In this assay, GK catalyzes glucose phosphorylation in the presence of ATP. The product of this reaction, glucose-6-phosphate, was then oxidized by an excess of glucose-6-phosphate dehydrogenase to produce gluconate-6-phosphate with concomitant reduction of nicotinamide adenine dinucleotide (NAD). […] Human GK (Liver/Pancreas) was expressed in Escherichia coli as a (His) 6-tagged fusion protein and was purified by metal chelate affinity chromatography. The assay was performed in a final incubation volume of 80 μl in a 96-well clear low UV absorption plates. The incubation mixture consisted of 25 mM HEPES, 2 mM MgSO4, 1 mM dithiothreotol (DTT), 1 mg/mL bovine serum albumin (BSA), 1 mM ATP, 1 mM NAD, and 12 mM glucose, 10 units per mL glucose-6-phosphate dehydrogenase, and +/−300 ng per mL GK. For determination of the affinity (Km) and Vmax, different concentrations of glucose ranging from 0.5 mM to 40 mM were used in the assay; see Grimsby, J., Sarabu, R.; Grippo, J. F.; et. al. Science 2003, 301, 370-373. Production of reduced NAD (Nicotinamide Adenine Dinucleotide) was measured as changes in absorption at 340 nm in 96-well plate reader (Envision model # 2101 Multilabel Plate reader). % Activation @ 50 μM was calculated as the percentage increase in GK activity above the vehicle control with the effective concentration of the compound being 50 μM. EC50% (μM) was calculated as the effective concentration of the compound that produces 50% activation above the vehicle control, and EC100% (μM) was calculated as the effective concentration of the compound that produces 100% activation above the vehicle control.

Assay [2] addresses T2, human pancreas Glucokinase (GK) (Homo sapiens, UniProt P35557).
T2 construct: (His)6; made in house; host or cells: Escherichia coli
T2 sequence (P35557 1-465): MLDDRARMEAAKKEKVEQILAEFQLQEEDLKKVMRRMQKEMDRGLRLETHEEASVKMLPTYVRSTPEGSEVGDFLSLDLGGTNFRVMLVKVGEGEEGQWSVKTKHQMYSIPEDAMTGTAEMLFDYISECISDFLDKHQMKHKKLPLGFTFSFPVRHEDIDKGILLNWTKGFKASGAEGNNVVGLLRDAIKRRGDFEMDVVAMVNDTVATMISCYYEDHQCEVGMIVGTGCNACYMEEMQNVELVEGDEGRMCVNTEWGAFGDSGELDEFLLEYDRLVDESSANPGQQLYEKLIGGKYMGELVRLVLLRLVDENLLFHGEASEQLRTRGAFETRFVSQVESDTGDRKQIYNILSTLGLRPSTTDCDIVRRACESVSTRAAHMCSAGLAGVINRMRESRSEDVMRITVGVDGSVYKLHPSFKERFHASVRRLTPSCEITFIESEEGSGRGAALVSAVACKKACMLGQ
Description: Glucokinase enzyme assay, pancreas GK. It is filed as biochemical. The note with it: for activation at 50 µM: percentage increase in GK activity above vehicle control, compound 50 μM, 12 mM glucose; for EC50: concentration that produces 50% activation above the vehicle control; for EC100%: concentration that produces 100% activation above the vehicle control.
From the text: as §1, §2

Values joined by “and” are separate entries in the source; they are usually repeats but may differ in a detail not shown here. Identical values can stand only once.

In the case of `COc1ccc([C@H](C)N2C(=O)C3=C(CCCC3)[C@@H]2SCC(=O)Nc2ccccn2)cc1` (single isomer, unassigned) [Compound 6], the results for the activation at 50 µM in assay [1] and in assay [2] were 21% and 79%, respectively.
For the molecule `COc1ccc([C@H](C)N2C(=O)C3=C(CCCC3)[C@H]2SCC(=O)Nc2ccccn2)cc1` (single isomer, unassigned) [Compound 7], the activation at 50 µM was found to be 0% in assay [1] and 35% in assay [2].
`COC(=O)c1ccc(NC(=O)CSC2C3=C(CCCC3)C(=O)N2Cc2ccc(OC)cc2)nc1` (stereo not drawn) [Compound 2]: in assay [1], the EC50 is 160 nM and 210 nM; the “EC100%” value is 0.52 µM and 0.98 µM. In addition, in assay [2], the EC50 came out at 350 nM and the “EC100%” value was 1.32 µM.
Turning to `COc1ccc(CN2C(=O)C3=C(CCCC3)C2SCC(=O)Nc2ccccn2)cc1` (stereo not drawn) [Compound 3, 2-[2-(4-Methoxy-benzyl)-3-oxo-2,3,4,5,6,7-hexahydro-1H-isoindol-1-ylsulfanyl]-N-pyridin-2-yl-acetamide], in assay [1], the EC50 was found to be 390 nM, the “EC100%” value was determined as 1 µM and the activation at 50 µM stood at 250%.
In the case of `COc1ccc(CN2C(=O)C3=C(CCCC3)C2OCC(=O)Nc2ccccn2)cc1` (stereo not drawn) [Compound 4, 2-[2-(4-Methoxy-benzyl)-3-oxo-2,3,4,5,6,7-hexahydro-1H-isoindol-1-yloxy]-N-pyridin-2-yl-acetamide], in assay [1], the EC50 was 7780 nM, the “EC100%” value came out at 31.4 µM and the activation at 50 µM came to 114%.
As for `COC(=O)c1ccc(NC(=O)CSC2C3=C(CCCC3)C(=O)N2Cc2ccc(OC(C)C)cc2)nc1` (stereo not drawn) [Compound 5], in assay [1], the EC50 was 3100 nM and 1050 nM; the “EC100%” value is 5.54 µM.
With `COc1ccc(CN2C(=O)C3=C(CCCC3)C2SCC(=O)Nc2ccc(C(=O)O)cn2)cc1` (stereo not drawn) [Compound 8, 6-{2-[2-(4-Methoxy-benzyl)-3-oxo-2,3,4,5,6,7-hexahydro-1H-isoindol-1-ylsulfanyl]-acetylamino}-nicotinic acid], the EC50 in assay [1] is 900 nM; in assay [2], 1300 nM and 740 nM and 630 nM. In addition, the “EC100%” value in assay [1] was determined as 2.5 µM.
On to `COC(=O)c1ccc(NC(=O)CSC2C3=C(CCCC3)C(=O)N2Cc2ccc(OC)c(OC)c2)nc1` (stereo not drawn) [Compound 9, 6-{2-[2-(3,4-Dimethoxy-benzyl)-3-oxo-2,3,4,5,6,7-hexahydro-1H-isoindol-1-ylsulfanyl]-acetylamino}-nicotinic acid methyl ester], for which, in assay [1], the EC50 was found to be 250 nM, the “EC100%” value came out at 1.43 µM and the activation at 50 µM stood at 206%. For the same molecule, in assay [2], the EC50 is 330 nM, the “EC100%” value is 2.2 µM and the activation at 50 µM was 164%.
In the case of `COc1ccc(CN2C(=O)C3=C(CCCC3)C2SCC(=O)Nc2ccccn2)cc1OC` (stereo not drawn) [Compound 10, 2-[2-(3,4-Dimethoxy-benzyl)-3-oxo-2,3,4,5,6,7-hexahydro-1H-isoindol-1-ylsulfanyl]-N-pyridin-2-yl-acetamide], in assay [1], the EC50 amounted to 390 nM, the “EC100%” value was found to be 1.35 µM and the activation at 50 µM came to 259%. In assay [2], the EC50 is 450 nM and the “EC100%” value turned out to be 1.8 µM.
As to `COc1ccc(CN2C(=O)C3=C(CCCC3)C2SCC(=O)Nc2ccc(C)cn2)cc1OC` (stereo not drawn) [Compound 11, 2-[2-(3,4-Dimethoxy-benzyl)-3-oxo-2,3,4,5,6,7-hexahydro-1H-isoindol-1-ylsulfanyl]-N-(5-methyl-pyridin-2-yl)-acetamide], in assay [1], the EC50 came to 550 nM, the “EC100%” value was found to be 3.5 µM and the activation at 50 µM was 202%. Also, in assay [2], the EC50 was 800 nM, the “EC100%” value is 5.7 µM and the activation at 50 µM was 168%.
With `COc1ccc(CN2C(=O)C3=C(CCCC3)C2SCC(=O)Nc2nccs2)cc1OC` (stereo not drawn) [Compound 12, 2-[2-(3,4-Dimethoxy-benzyl)-3-oxo-2,3,4,5,6,7-hexahydro-1H-isoindol-1-ylsulfanyl]-N-thiazol-2-yl-acetamide], in assay [1], the EC50 was 3100 nM, the “EC100%” value amounted to 10.3 µM and the activation at 50 µM worked out at 196%. Also, in assay [2], the EC50 stood at 4300 nM, the “EC100%” value stood at 17.1 µM and the activation at 50 µM amounted to 143%.

The record behind these values is patent publication US20070117808A1, “Substituted Cycloalkylpyrrolones As Allosteric Modulators Of Glucokinase” (priority 2005, published 2007).
